Here are results for 79 compounds from the METLIN SMRT retention time set (Domingo-Almenara et al. 2019).

Structures are written as SMILES.

The nature of this data set: gradient 5% acetonitrile 3 min, to 50% in 2 min, to 85% in 15 min, held 3 min, 100 µL/min. The settings on record: column: Zorbax Extend-C18 2.1 x 50 mm; eluents: water / acetonitrile, 0.1% formic acid. The essentials:
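Pure standards were analyzed in mixtures of ~100 molecules using HPLC coupled to a quadrupole time-of-flight mass spectrometer, in both positive and negative ionization mode. Separation used a Zorbax Extend-C18 column (2.1 × 50 mm, 1.8 μm) at 100 μL/min, with water and acetonitrile each containing 0.1% formic acid. Dead and dwell volumes were 40 μL and 900 μL, and data were collected over 3 months. Retention time was read from computationally picked adduct peaks, each inspected manually.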
Compound `Cc1ccc(NC(=O)Cn2nc3c(Oc4cccc(F)c4)nccn3c2=O)c(F)c1` yielded an RP-LC retention time of 878 s.
Consider `COc1ccc(N2CC(c3nc(-c4ccccc4Cl)no3)CC2=O)cc1` (centres undefined), for which the RP-LC retention time is 926 s.
Consider `COc1ccc(OC)c(C(C)NC(=O)C2CCCN(c3nccnc3Sc3ccc(C)cc3)C2)c1` (centres undefined), for which the RP-LC retention time worked out at 1150 s.
Next, `Cc1cccc(C)c1NC(=O)N1CCC(OC2CCN(S(C)(=O)=O)CC2)CC1`: 718 s.
For `O=C(Cn1nc2n(c1=O)CCCC2)Nc1ccc(C(F)(F)F)cc1`, the RP-LC retention time came out at 716 s.
As for `COc1cccc(OCC(O)CN2CCN(c3ccc(F)cc3)CC2)c1` (centres undefined), the figure is 687 s.
Next, `CCCN1C(=O)c2cc(S(=O)(=O)N3CCCC3)ccc2Oc2cccnc21`: 913 s; `COc1ccccc1-c1noc(C2CCCN2C(=O)Nc2ccc3c(c2)OCCO3)n1` (centres undefined): 762 s; `Cc1cnc(C2CCC2)n1CC1CCCN(Cc2cn(C)c3ccccc23)C1` (centres undefined): 583 s.
Turning to `Cc1ccc(-c2csc(Cc3nc(-c4cccc(F)c4)no3)n2)cc1`, the RP-LC retention time worked out at 1270 s.
Compound `COC(=O)C(C)Sc1nc2c(c(=O)n1-c1ccc(OC(F)(F)F)cc1)SCC2` (centres undefined) gave an RP-LC retention time of 949 s.
Next, `CC(C)N1C(=O)c2cccnc2Sc2cc(NC(=O)c3ccccc3F)ccc21`: 896 s.
Take `Cc1noc(C)c1CNC(=O)c1ccc2[nH]ccc2c1`: the RP-LC retention time was found to be 574 s.
As for `CCN1C(=O)CN(C(=O)c2cccs2)CC12CCOCC2`, the figure is 631 s; as for `COc1ccc(N2CC(NC(=O)C(=O)c3c(C)[nH]c4ccccc34)CC2=O)cc1` (centres undefined), 707 s.
With `Cc1cccc(N2CCN(Cc3nc(-c4ccc(N5CCOCC5)nc4)no3)CC2)c1C`, the RP-LC retention time is 945 s.
Compound `NC(=O)C1(c2ccccc2Cl)CC1` registered an RP-LC retention time of 692 s.
As for `Cc1ccc(CNS(=O)(=O)c2ccc(-c3c(C)noc3C)cc2)o1`, the figure is 893 s; as for `CCCc1nnc(-c2cccnc2N2CCN(C(=O)c3ccoc3)CC2)o1`, 728 s; as for `CCn1nnc2c(SCC(=O)Nc3cccc(C(F)(F)F)c3)ncnc21`, 866 s.
In the case of `COc1cc(OC)cc(C(=O)N2CCCC2c2nc(-c3ccc(OC)c(OC)c3)no2)c1` (centres undefined), the RP-LC retention time amounted to 879 s.
For the compound `O=C(CSc1nnc(COc2ccccc2Cl)o1)Nc1nc(-c2ccccc2)cs1`, the RP-LC retention time is 917 s.
Next, `O=C(NC1CCCCCC1)C1CCCN(C(=O)c2ccc(F)c(F)c2)C1` (centres undefined): 856 s; `O=C(c1ccc2c(c1)OCO2)N1CCC2(CC1)NC(=O)N(Cc1ccccc1)C2=O`: 760 s; `O=C(Cc1cccn1-c1ccc(Cl)cc1)NCCCN1CCOCC1`: 625 s.
As for `Cc1ccn2cc(-c3ccc(NC(=O)c4ccc([N+](=O)[O-])cc4Cl)cc3)nc2n1`, the figure is 660 s; as for `Cc1noc(-c2ccc(NC(=O)COc3ccc(Cl)cc3Cl)cc2)n1`, 1030 s; as for `COCCN1C(=O)c2cccn2CC1CNC(=O)c1cnc(C)cn1` (centres undefined), 610 s.
The compound `COC(=O)c1ncn2c1C(=O)N(c1ccccc1C)C(C)(C(=O)NCc1ccc(C)cc1)C2` (centres undefined) registered an RP-LC retention time of 726 s.
As for `COC(=O)N1CCN(Cc2cccc(NC(=O)Nc3ccc(C)nc3)c2F)CC1`, the figure is 577 s; as for `O=C(NCc1ccccc1Cl)C1CCCN(c2nccnc2Sc2ccccc2)C1` (centres undefined), 1070 s; as for `C=CCNC(=O)C1CCN(C(=O)Nc2ccc(NC(=O)Nc3cccc(F)c3)cc2)CC1`, 706 s.
As for `CS(=O)(=O)N1CCC(C(=O)Nc2cccc(C(F)(F)F)c2)Oc2ccc(Cl)cc21` (centres undefined), the figure is 1060 s.
In the case of `Cc1ccc(C)c(C(=O)NC(c2ccccc2)c2nnc(N3CCCC3)o2)c1` (centres undefined), the RP-LC retention time stood at 841 s.
As for `Cc1ccc(-c2noc(-c3cccc(S(=O)(=O)NC4CCCC4)c3)n2)cc1`, the figure is 1360 s; as for `O=C(N1CCCC(c2nnnn2-c2ccccc2)C1)C1(c2ccccc2)CC1` (centres undefined), 839 s.
Take `Cc1ccc(-c2cc3c(=O)n(Cc4nc(-c5ccccc5Cl)no4)ncn3n2)c(C)c1`: the RP-LC retention time turned out to be 1220 s.
`Cc1nc(CC(=O)Nc2ccc(F)cc2F)sc1C(=O)NC1CC1` showed an RP-LC retention time of 696 s.
Next, `COC(=O)c1ccc(NC(=O)Cn2c(=O)cc(-c3nc(C(C)C)no3)c3ccccc32)cc1`: 990 s; `COc1ccc(C)cc1NC(=O)N1CCN(c2cnn3c(C)nnc3c2)CC1`: 648 s; `COc1cccc(-c2noc(Cn3c(=O)n(-c4ccc(F)cc4)c(=O)c4sccc43)n2)c1`: 952 s.
As for `COc1cc2c(cc1OC)C(C(=O)Nc1ccc(F)cc1F)C(c1cccs1)N(C)C2=O` (centres undefined), the figure is 827 s; as for `O=C(Cn1cnc2c(-c3ccc(F)cc3)csc2c1=O)N1CCCc2ccccc21`, 1020 s.
As for `CCCNC(=O)C1CCCN(c2ccc(SCC(=O)Nc3ccc(C)cc3)nn2)C1` (centres undefined), the figure is 686 s.
In the case of `Cc1ccn2cc(-c3ccc(NC(=O)c4cccc(F)c4)cc3)nc2n1`, the RP-LC retention time was found to be 647 s.
As for `Cc1cc(N2CCN(c3ccccn3)CC2)n2nc(-c3ccco3)nc2n1`, the figure is 584 s; as for `Cc1ccc(-c2noc(Cn3ccn(-c4ccc(Cl)cc4)c(=O)c3=O)n2)cc1`, 918 s.
Turning to `CCc1nc2cc(N3CCC(C(=O)NC(C)c4ccc(OC)cc4)CC3)cnc2nc1CC` (centres undefined), the RP-LC retention time was 868 s.
Next, `CSc1ccc(CNC(=O)Cc2c(C(=O)O)c(C)cn2C)cc1`: 757 s; `CCC1(O)CCC12CCN(C(=O)c1ccoc1)CC2` (centres undefined): 691 s.
On to `COc1cc(-c2nc(C3CC(=O)N(c4ccc(C)cc4)C3)no2)cc(OC)c1OC` (centres undefined), for which the RP-LC retention time worked out at 834 s.
`O=C(COc1ccc(Cl)cc1Cl)N1CCN(c2ccc3nncn3n2)CC1` returned an RP-LC retention time of 687 s.
Take `CC(C)(C)c1ccc(C(=O)NC2CCN(c3cc(-c4ccc(Cl)cc4)[nH]n3)C2)cc1` (centres undefined): the RP-LC retention time was 976 s.
Next, `O=C(c1cccnc1)N1CCC(Oc2cc(N3CCCCC3)ncn2)C1` (centres undefined): 651 s; `CCCN1C(=O)C2CCC(=O)N2c2ccc(C(=O)N3CCN(CC)CC3)cc21` (centres undefined): 561 s; `O=C(Cn1c(=O)c2cccn2c2ccccc21)NCc1cccs1`: 763 s.
Compound `CC(C)(C)c1ccc(OCC(=O)Nc2ccc(CC(=O)N3CCOCC3)cc2)cc1` came in with an RP-LC retention time of 870 s.
Next, `CN(CC1CCOCC1)C(=O)c1cccs1`: 664 s; `CC(C)Cn1c(=O)c2sccc2n2c(CCC(=O)NCc3cc(F)ccc3F)nnc12`: 622 s.
Next, `CC(C)c1ccc(Oc2nccn3c(=O)n(CC(=O)Nc4ccc(Br)cc4)nc23)cc1`: 1090 s; `Cc1ccc(NC(=O)N2CCCC2c2nc(-c3ccc(F)cc3F)no2)c(Cl)c1` (centres undefined): 1110 s; `O=C(Nc1nc2ccccc2s1)C1CCN(C(=O)c2ccccc2Cl)CC1`: 829 s.
`Cc1ccsc1C(=O)Nc1cnc(-c2cccc(Cl)c2)nc1` registered an RP-LC retention time of 1130 s.
In turn, `Cc1nc(-c2cccc(F)c2)sc1C(=O)NC(C)C` yielded an RP-LC retention time of 936 s.
Next, `CN(C)C(=O)c1n[nH]c2c1CN(C(=O)c1ccccc1Br)CC2`: 623 s.
As for `O=C(NCc1cccc(F)c1)c1cc2n(n1)CCCC2`, the RP-LC retention time worked out at 782 s.
For the compound `Cc1cc2nn(CC(=O)NCC3CCCO3)c(=O)n2c(Nc2ccc(F)cc2)n1` (centres undefined), the RP-LC retention time was found to be 722 s.
Next, `Cc1nnc(-c2coc(S(=O)(=O)N3CCC(N4CCCCC4)CC3)c2)o1`: 615 s; `CCCc1cc(NCCN(C)C)n2ncc(-c3ccccc3)c2n1`: 660 s; `CN(C)C(=O)c1ccc2c(c1)N(CC(=O)Nc1ccc3c(c1)OCCO3)C(=O)C1CCCCN21` (centres undefined): 750 s.
As to `Cn1cccc1C(=O)C(=O)NCc1ccc2c(c1)OCO2`, the RP-LC retention time worked out at 793 s.
Next, `CCc1ccccc1NC(=O)C1CCCN(c2nc3c(s2)c(C)nn3-c2cccc(F)c2)C1` (centres undefined): 1260 s; `O=C(Nc1ncc(S(=O)(=O)c2ccc([N+](=O)[O-])cc2)s1)c1ccccc1F`: 866 s; `CCN1C(=O)c2cccnc2Sc2cc(NC(=O)c3ccc4c(c3)OCO4)ccc21`: 802 s.
As for `Cc1cc(C)cc(NC(=O)C2CCN(S(=O)(=O)c3c(C)nn(-c4ccccc4)c3C)CC2)c1`, the RP-LC retention time is 1060 s.
In turn, `O=C(CN1C(=O)CC(c2cccs2)=Nc2ccccc21)Nc1ccc(F)cc1` returned an RP-LC retention time of 928 s.
`CC(C)NC(=O)CN1C(=O)C2CCCCN2c2ccc(C(=O)N3CCCCC3)cc21` (centres undefined) registered an RP-LC retention time of 735 s.
Next, `CN(C)C(=O)c1cc(N(C)C)nc2c(Cl)cccc12`: 745 s.
As for `O=C(N1CCOCC1)N1CCN(S(=O)(=O)c2cccc([N+](=O)[O-])c2)CC1`, the figure is 668 s.
